Measured values published in PubChem BioAssay AID256 (DTP/NCI, 2004).
“And” between values parts separate entries of the source, which are not always exact repeats. Equal values may be shown once. Inconclusive results and toxic doses are left out. The calls were made as follows: active = survival T/C of 150% or more; inactive = T/C below 125% in these data.

Test system: CD2F1 mice, L1210 leukemia ip, survival T/C
Assay: NCI In Vivo Anticancer Drug Screen. Data for tumor model L1210 Leukemia (intraperitoneal) in CD2F1 (CDF1) mice
Settings: higher = longer survival
In short: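 Each value reflects a quotient of treated over vehicle control outcomes in mice with a transplanted tumor.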

[1] = endpoint: mean survival time, dose: 25.0 mg/kg/injection, schedule: Q04DX002 (ip), vehicle: saline with Tween-80
[2] = endpoint: mean survival time, dose: 50.0 mg/kg/injection, schedule: Q04DX002 (ip), vehicle: saline with Tween-80
[3] = endpoint: mean survival time, dose: 100.0 mg/kg/injection, schedule: Q04DX002 (ip), vehicle: saline with Tween-80
[4] = endpoint: mean survival time, dose: 100.0 mg/kg/injection, schedule: Q01DX009 (ip), vehicle: saline with Tween-80
[5] = endpoint: mean survival time, dose: 100.0 mg/kg/injection, schedule: Q04DX003 (ip), vehicle: saline with Tween-80
[6] = endpoint: mean survival time, dose: 200.0 mg/kg/injection, schedule: Q01DX009 (ip), vehicle: saline with Tween-80
[7] = endpoint: mean survival time, dose: 200.0 mg/kg/injection, schedule: Q04DX003 (ip), vehicle: saline with Tween-80
[8] = endpoint: mean survival time, dose: 400.0 mg/kg/injection, schedule: Q01DX009 (ip), vehicle: saline with Tween-80
[9] = endpoint: mean survival time, dose: 400.0 mg/kg/injection, schedule: Q04DX003 (ip), vehicle: saline with Tween-80
[10] = endpoint: mean survival time, dose: 100.0 mg/kg/injection, schedule: Q01DX009 (ip), vehicle: Klucel (hydroxypropylcellulose) (HPC)
[11] = endpoint: mean survival time, dose: 200.0 mg/kg/injection, schedule: Q01DX009 (ip), vehicle: Klucel (hydroxypropylcellulose) (HPC)
[12] = endpoint: mean survival time, dose: 400.0 mg/kg/injection, schedule: Q01DX009 (ip), vehicle: Klucel (hydroxypropylcellulose) (HPC)

Measured: T/C

O=NNc1ccc(Cl)cn1
inactive: endpoint: median survival time, dose: 1.5 mg/kg/injection, schedule: Q01DX009 (ip), vehicle: water 110 % of control | endpoint: median survival time, dose: 1.56 mg/kg/injection, schedule: Q01DX009 (ip), vehicle: water 104 % of control | endpoint: median survival time, dose: 3.0 mg/kg/injection, schedule: Q01DX009 (ip), vehicle: water 114 % of control | endpoint: median survival time, dose: 3.12 mg/kg/injection, schedule: Q01DX009 (ip), vehicle: water 117 % of control | endpoint: median survival time, dose: 6.0 mg/kg/injection, schedule: Q01DX009 (ip), vehicle: water 119 % of control | endpoint: median survival time, dose: 12.5 mg/kg/injection, schedule: Q01DX009 (ip), vehicle: water 104 % of control | endpoint: median survival time, dose: 24.0 mg/kg/injection, schedule: Q01DX009 (ip), vehicle: water 107 % of control

[N-]=C=S.[N-]=C=S.[NH-]N.[NH-]N.[Zn]
inactive: [1] 96 % of control | [2] 100 % of control | [3] 102 % of control

CCOC(=O)C(O)(C(=O)OCC)c1ccc(C)cc1
inactive: [4] 97 % of control | [5] 102 % of control | [6] 97 % of control | [7] 100 % of control | [8] 97 % of control | [9] 100 % of control

COc1cc(C(C)c2cc3c(cc2OCCO)OCO3)cc(OC)c1OC (centres undefined)
inactive: endpoint: median survival time, dose: 25.0 mg/kg/injection, schedule: Q01DX009 (ip), vehicle: saline with Tween-80 96 % of control and 106 % of control | endpoint: median survival time, dose: 50.0 mg/kg/injection, schedule: Q01DX009 (ip), vehicle: saline with Tween-80 106 % of control and 109 % of control | endpoint: median survival time, dose: 100.0 mg/kg/injection, schedule: Q01DX009 (ip), vehicle: saline with Tween-80 106 % of control and 110 % of control

CN1N=C(N)c2cn(C3OC(CO)C4OC(C)(C)OC43)c3ncnc1c23 (centres undefined)
inactive: endpoint: mean survival time, dose: 12.5 mg/kg/injection, schedule: Q01DX005 (ip), vehicle: water 87 % of control | endpoint: mean survival time, dose: 25.0 mg/kg/injection, schedule: Q01DX005 (ip), vehicle: water 96 % of control | endpoint: mean survival time, dose: 50.0 mg/kg/injection, schedule: Q01DX005 (ip), vehicle: water 104 % of control | endpoint: mean survival time, dose: 100.0 mg/kg/injection, schedule: Q01DX005 (ip), vehicle: water 104 % of control

CN1CCN(c2ccccc2)CC1
inactive: endpoint: mean survival time, dose: 100.0 mg/kg/injection, schedule: Q01DX001 (ip), vehicle: saline 112 % of control

O=C(Nc1ccc(F)cc1)Nc1ccc(Cl)cc1
inactive: [4] 97 % of control | [6] 100 % of control | [8] 103 % of control

Cc1ccc(NC(=O)NC2CCCCC2)cc1
inactive: [5] 93 % of control | [7] 90 % of control | [9] 93 % of control

O=S(=O)(O)C1CCC(O)C2[N-]CCCC21.O=S(=O)(O)C1CCC(O)C2[N-]CCCC21.[Zn+2] (centres undefined)
inactive: [4] 95 % of control | [5] 96 % of control | [7] 93 % of control | [8] 86 % of control | [9] 96 % of control

O=C1c2ccc([N+](=O)[O-])cc2-c2c1cccc2[N+](=O)[O-]
inactive: [1] 95 % of control | [2] 87 % of control

CCN(CC)CCN1CC2CC=CCC2C1 (centres undefined)
inactive: [4] 96 % of control

O=Cc1ccccc1O
inactive: endpoint: mean survival time, dose: 100.0 mg/kg/injection, schedule: Q04DX002 (ip), vehicle: saline 93 % of control

CCOC(=O)C(O)C(C)(Cl)c1ccccc1 (centres undefined)
inactive: [1] 98 % of control | [2] 102 % of control | [3] 95 % of control | endpoint: mean survival time, dose: 200.0 mg/kg/injection, schedule: Q04DX002 (ip), vehicle: saline with Tween-80 95 % of control

C=C1CC2(OC1=O)C(=O)N(C)c1ccc(I)cc12 (centres undefined)
inactive: endpoint: mean survival time, dose: 6.25 mg/kg/injection, schedule: Q01DX009 (ip), vehicle: saline 100 % of control and 104 % of control | endpoint: mean survival time, dose: 12.5 mg/kg/injection, schedule: Q01DX009 (ip), vehicle: saline 100 % of control and 112 % of control | endpoint: mean survival time, dose: 25.0 mg/kg/injection, schedule: Q01DX009 (ip), vehicle: saline 117 % of control and 102 % of control | endpoint: mean survival time, dose: 50.0 mg/kg/injection, schedule: Q01DX009 (ip), vehicle: saline 105 % of control

CCCN1OC2CC/C=C\CCC2C1c1ccccc1 (centres undefined)
inactive: [10] 100 % of control | endpoint: mean survival time, dose: 100.0 mg/kg/injection, schedule: Q04DX003 (ip), vehicle: other 101 % of control | [11] 100 % of control | endpoint: mean survival time, dose: 200.0 mg/kg/injection, schedule: Q04DX003 (ip), vehicle: other 107 % of control | [12] 88 % of control | endpoint: mean survival time, dose: 400.0 mg/kg/injection, schedule: Q04DX003 (ip), vehicle: other 106 % of control

Cc1cc(Br)cnc1Cl
inactive: endpoint: mean survival time, dose: 100.0 mg/kg/injection, schedule: Q01DX001 (ip), vehicle: saline with Tween-80 97 % of control | [5] 92 % of control | endpoint: mean survival time, dose: 200.0 mg/kg/injection, schedule: Q01DX001 (ip), vehicle: saline with Tween-80 106 % of control | [7] 97 % of control | endpoint: mean survival time, dose: 400.0 mg/kg/injection, schedule: Q01DX001 (ip), vehicle: saline with Tween-80 101 % of control | [9] 96 % of control

C=C(C)C12OC3(c4ccccc4)OC1C1C4OC4(CO)C(O)C4(O)C(=O)C(C)=CC4C1(O3)C(C)C2OC(=O)c1ccccc1 (centres undefined)
inactive: endpoint: mean survival time, dose: 0.1 mg/kg/injection, schedule: Q01DX009 (ip), vehicle: saline 96 % of control | endpoint: mean survival time, dose: 0.2 mg/kg/injection, schedule: Q01DX009 (ip), vehicle: saline 98 % of control | endpoint: mean survival time, dose: 0.4 mg/kg/injection, schedule: Q01DX009 (ip), vehicle: saline 98 % of control | endpoint: mean survival time, dose: 0.8 mg/kg/injection, schedule: Q01DX009 (ip), vehicle: saline 100 % of control

CCCCCCCCCc1nc(N)nc(NCCCC)n1
inactive: endpoint: mean survival time, dose: 25.0 mg/kg/injection, schedule: Q01DX009 (ip), vehicle: Klucel (hydroxypropylcellulose) (HPC) 101 % of control | endpoint: mean survival time, dose: 50.0 mg/kg/injection, schedule: Q01DX009 (ip), vehicle: Klucel (hydroxypropylcellulose) (HPC) 112 % of control | [10] 108 % of control

CCN(CC)CCNCCCNCCN(CC)CC
inactive: endpoint: mean survival time, dose: 100.0 mg/kg/injection, schedule: Q01DX009 (ip), vehicle: saline 92 % of control | [5] 98 % of control | endpoint: mean survival time, dose: 200.0 mg/kg/injection, schedule: Q01DX009 (ip), vehicle: saline 92 % of control | [7] 95 % of control | endpoint: mean survival time, dose: 400.0 mg/kg/injection, schedule: Q01DX009 (ip), vehicle: saline 87 % of control | [9] 95 % of control

Cn1c(=S)sc2nc3ccccc3n2c1=S
inactive: endpoint: median survival time, dose: 15.0 mg/kg/injection, schedule: Q01DX005 (ip), vehicle: saline with Tween-80 103 % of control | endpoint: median survival time, dose: 30.0 mg/kg/injection, schedule: Q01DX005 (ip), vehicle: saline with Tween-80 107 % of control | endpoint: median survival time, dose: 60.0 mg/kg/injection, schedule: Q01DX005 (ip), vehicle: saline with Tween-80 111 % of control | endpoint: median survival time, dose: 120.0 mg/kg/injection, schedule: Q01DX005 (ip), vehicle: saline with Tween-80 107 % of control | endpoint: median survival time, dose: 240.0 mg/kg/injection, schedule: Q01DX005 (ip), vehicle: saline with Tween-80 107 % of control

COC1(OC)C2C=CC1CC2
inactive: endpoint: mean survival time, dose: 12.5 mg/kg/injection, schedule: Q01DX009 (ip), vehicle: saline with Tween-80 105 % of control | endpoint: mean survival time, dose: 25.0 mg/kg/injection, schedule: Q01DX009 (ip), vehicle: saline with Tween-80 100 % of control | endpoint: mean survival time, dose: 50.0 mg/kg/injection, schedule: Q01DX009 (ip), vehicle: saline with Tween-80 109 % of control | [4] 103 % of control | [6] 103 % of control | [8] 114 % of control

O=[N+]([O-])c1ccc(N=Cc2ccc3c(c2)OCO3)cc1
inactive: endpoint: mean survival time, dose: 100.0 mg/kg/injection, schedule: Q01DX001 (ip), vehicle: Klucel (hydroxypropylcellulose) (HPC) 106 % of control | [10] 96 % of control | endpoint: mean survival time, dose: 200.0 mg/kg/injection, schedule: Q01DX001 (ip), vehicle: Klucel (hydroxypropylcellulose) (HPC) 101 % of control | [11] 97 % of control | endpoint: mean survival time, dose: 400.0 mg/kg/injection, schedule: Q01DX001 (ip), vehicle: Klucel (hydroxypropylcellulose) (HPC) 96 % of control | [12] 96 % of control
